This passage reports MIC and Ratio results from ChEMBL document CHEMBL2311515, “Synthesis and evaluation of antibacterial activity of 7-alkyloxy-4,5-dihydro-imidazo[1,2-a]quinoline derivatives” (2013).

≈ marks a conversion by molar mass, not a printed value.

Holding throughout (assay type): functional
One assay deals with Escherichia coli. Kind of assay: Antibacterial activity against Escherichia coli ATCC 8739 assessed as growth inhibition after 20 hrs by NCCLS broth microdilution method. Particulars: ATCC 8739, 20 h. For orientation: Dilution methods test growth across graded concentrations, often in twofold steps.
A further assay has as its system Staphylococcus aureus. Kind of assay: Antibacterial activity against Staphylococcus aureus ATCC 29213 assessed as growth inhibition after 20 hrs by NCCLS broth microdilution method. Particulars: ATCC 29213, 20 h.
Assay [1] concerns Proteus vulgaris. Kind of assay: Ratio of ciprofloxacin MIC to compound MIC for Proteus vulgaris ATCC 35659.
Assay [2] relates to Proteus vulgaris. Kind of assay: Ratio of amoxicillin MIC to compound MIC for Proteus vulgaris ATCC 35659.
In the next assay the test system is Pasteurella sp. Kind of assay: Antibacterial activity against Pasteurella ATCC 6529 assessed as growth inhibition after 20 hrs by NCCLS broth microdilution method. To be noted: ATCC 6529, 20 h.
For another assay, the system named is Salmonella. Kind of assay: Antibacterial activity against Salmonella ATCC 14028 assessed as growth inhibition after 20 hrs by NCCLS broth microdilution method. To be noted: ATCC 14028, 20 h.
Assay [3] relates to Proteus vulgaris. Kind of assay: Antibacterial activity against Proteus vulgaris ATCC 35659 assessed as growth inhibition after 20 hrs by NCCLS broth microdilution method. To be noted: ATCC 35659, 20 h.
A further assay deals with Klebsiella pneumoniae. Kind of assay: Antibacterial activity against Klebsiella pneumoniae ATCC 10031 assessed as growth inhibition after 20 hrs by NCCLS broth microdilution method. To be noted: ATCC 10031, 20 h.
The subject of another assay is Pseudomonas aeruginosa. Kind of assay: Antibacterial activity against Pseudomonas aeruginosa ATCC 27853 assessed as growth inhibition after 20 hrs by NCCLS broth microdilution method. To be noted: ATCC 27853, 20 h.

Broadly, the MIC is the lowest concentration that inhibits growth of the organism. On to `CCCCCCOc1ccc2c(c1)CCc1nccn1-2`, for which the figures for the MIC in the assay on Escherichia coli and in the assay on Staphylococcus aureus were 16 µg/mL (≈ 59.2 µM) and 75 µg/mL (≈ 277 µM), respectively.
Consider `CCCCCCCOc1ccc2c(c1)CCc1nccn1-2`, for which the Ratio with Proteus vulgaris [1] and with Proteus vulgaris [2] was 8 throughout. Besides, the MIC was 2 µg/mL (≈ 7.03 µM) in the assay on Pasteurella sp.; 64 µg/mL (≈ 225 µM) with Salmonella; 16 µg/mL (≈ 56.3 µM) in the assay with Proteus vulgaris [3]; more than 128 µg/mL in the assay on Klebsiella pneumoniae; 16 µg/mL (≈ 56.3 µM) with Pseudomonas aeruginosa; 0.5 µg/mL (≈ 1.76 µM) in the assay on Escherichia coli. Moreover, in the assay on Staphylococcus aureus, the MIC worked out at 50 µg/mL (≈ 176 µM).
For the compound `CCCCCCCCOc1ccc2c(c1)CCc1nccn1-2`, the values for the MIC in the assay with Escherichia coli and in the assay on Staphylococcus aureus were 25 µg/mL (≈ 83.8 µM) and 50 µg/mL (≈ 168 µM), respectively.
For the compound `CCCCCCCCCOc1ccc2c(c1)CCc1nccn1-2`, the MIC in the assay on Escherichia coli and in the assay with Staphylococcus aureus was 50 µg/mL (≈ 160 µM) in each case.
Take `CCCCCCCCCCOc1ccc2c(c1)CCc1nccn1-2`: the figures for the MIC in the assay with Escherichia coli and in the assay with Staphylococcus aureus were 50 µg/mL (≈ 153 µM) and 100 µg/mL (≈ 306 µM), respectively.
In the case of `c1ccc(COc2ccc3c(c2)CCc2nccn2-3)cc1`, the MIC in the assay with Escherichia coli is 50 µg/mL (≈ 181 µM); in the assay with Staphylococcus aureus it was 200 µg/mL (≈ 724 µM).
In the same order, the values of `Fc1ccccc1COc1ccc2c(c1)CCc1nccn1-2` are 50 µg/mL (≈ 170 µM) and 150 µg/mL (≈ 510 µM).
Taken in the same sequence, the figures for `Fc1cccc(COc2ccc3c(c2)CCc2nccn2-3)c1` were 50 µg/mL (≈ 170 µM) and 150 µg/mL (≈ 510 µM).
In the same order, the values of `Fc1ccc(COc2ccc3c(c2)CCc2nccn2-3)cc1` are 50 µg/mL (≈ 170 µM) and 50 µg/mL (≈ 170 µM).
Regarding `Clc1ccccc1COc1ccc2c(c1)CCc1nccn1-2`, the MIC in the assay on Escherichia coli amounted to 100 µg/mL (≈ 322 µM); with Staphylococcus aureus it was 150 µg/mL (≈ 483 µM).
Taken in the same sequence, the figures for `Clc1cccc(COc2ccc3c(c2)CCc2nccn2-3)c1` were 50 µg/mL (≈ 161 µM) and 150 µg/mL (≈ 483 µM).
In the same order, the values of `Clc1ccc(COc2ccc3c(c2)CCc2nccn2-3)cc1` are 50 µg/mL (≈ 161 µM) and 50 µg/mL (≈ 161 µM).
With `Brc1ccccc1COc1ccc2c(c1)CCc1nccn1-2`, the figures for the MIC with Escherichia coli and with Staphylococcus aureus were 50 µg/mL (≈ 141 µM) and 100 µg/mL (≈ 282 µM), respectively.
Turning to `Brc1cccc(COc2ccc3c(c2)CCc2nccn2-3)c1`, the results for the MIC in the assay on Escherichia coli and in the assay on Staphylococcus aureus were 50 µg/mL (≈ 141 µM) and 100 µg/mL (≈ 282 µM), respectively.
Taken in the same sequence, the figures for `Brc1ccc(COc2ccc3c(c2)CCc2nccn2-3)cc1` were 25 µg/mL (≈ 70.4 µM) and 50 µg/mL (≈ 141 µM).
Consider `Cc1ccc(COc2ccc3c(c2)CCc2nccn2-3)cc1`, for which the MIC in the assay with Escherichia coli was found to be 25 µg/mL (≈ 86.1 µM); in the assay on Staphylococcus aureus, 50 µg/mL (≈ 172 µM).
Regarding `COc1ccc(COc2ccc3c(c2)CCc2nccn2-3)cc1`, the results for the MIC with Escherichia coli and in the assay with Staphylococcus aureus were 50 µg/mL (≈ 163 µM) and 100 µg/mL (≈ 326 µM), respectively.
Regarding `CCCOc1ccc2c(c1)CCc1nccn1-2`, the MIC with Escherichia coli is 50 µg/mL (≈ 219 µM); in the assay with Staphylococcus aureus, 150 µg/mL (≈ 657 µM).
Taken in the same sequence, the figures for `CCCCOc1ccc2c(c1)CCc1nccn1-2` were 50 µg/mL (≈ 206 µM) and 150 µg/mL (≈ 619 µM).
`CCCCCOc1ccc2c(c1)CCc1nccn1-2`: the figures for the MIC with Escherichia coli and with Staphylococcus aureus were 50 µg/mL (≈ 195 µM) and 100 µg/mL (≈ 390 µM), respectively.
With `CC1(C)S[C@@H]2[C@H](NC(=O)[C@H](N)c3ccc(O)cc3)C(=O)N2[C@H]1C(=O)O` [AMOXICILLIN], the MIC in the assay with Pasteurella sp. was 16 µg/mL (≈ 43.8 µM); with Salmonella, more than 128 µg/mL; in the assay with Proteus vulgaris [3], more than 128 µg/mL; in the assay on Klebsiella pneumoniae, more than 128 µg/mL; with Pseudomonas aeruginosa, 16 µg/mL (≈ 43.8 µM); with Escherichia coli, 150 µg/mL (≈ 410 µM). Besides, the MIC with Staphylococcus aureus was determined as 25 µg/mL (≈ 68.4 µM).
For the compound `O=C(O)c1cn(C2CC2)c2cc(N3CCNCC3)c(F)cc2c1=O` [CIPROFLOXACIN], the MIC in the assay on Pasteurella sp. was 128 µg/mL (≈ 386 µM); with Salmonella it was more than 128 µg/mL; with Proteus vulgaris [3], 128 µg/mL (≈ 386 µM); with Klebsiella pneumoniae, 4 µg/mL (≈ 12.1 µM); with Pseudomonas aeruginosa it was 4 µg/mL (≈ 12.1 µM).
